This is an account of results in patent US12685312B2, “Sulfonamide apyrase inhibitors” (Texas Crop Science, Inc., priority 2022, dated 2026).

In the experiment the test system is apyrase. Nature of the experiment: Screen for apyrase inhibitors (Method 1, in vitro phosphate-release absorbance assay). Type of experiment: biochemical. The settings on record: inhibitor conc at 1 mM stock, 1 hr room temperature, absorbance 630 nm; rounded average of two assay results. In a few lines:
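Phosphate-release colorimetric assay (Windsor method) in 60 mM Hepes, 3 mM MgCl2, 3 mM CaCl2, 3 mM ATP, pH 6.5, with compound or DMSO control added. Released phosphate developed with ammonium molybdate and ascorbic acid/TCA, then stopped with citrate/acetic acid.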
Turning to `Cc1cccc(NC(=O)c2ccc(NS(=O)(=O)c3ccc(Br)cc3)cc2)c1C` [I-913, 4-((4-bromophenyl)sulfonamido)-N-(2,3-dimethylphenyl)benzamide], the “% Inhibition of Apyrase” value worked out at 59%. Take `CN(c1ccccc1)S(=O)(=O)c1cccc(NC(=O)c2cnc3n(c2=O)CCS3)c1` [I-732, N-(3-(N-methyl-N-phenylsulfamoyl)phenyl)-5-oxo-2,3-dihydro-5H-thiazolo[3,2-a]pyrimidine-6-carboxamide]: the “% Inhibition of Apyrase” value came to 55%. In the case of `Cc1ccc(S(=O)(=O)Nc2cccc(C(=O)Nc3nc4ccccc4[nH]3)c2)cc1F` [I-649, N-(1H-benzo[d]imidazol-2-yl)-3-((3-fluoro-4-methylphenyl)sulfonamido)benzamide] it was 50%; in that of `CN(C(=O)c1ccccc1S(=O)(=O)N(C)c1ccccc1)c1ccccc1` [I-815, N-methyl-2-(N-methyl-N-phenylsulfamoyl)-N-phenylbenzamide], 37%; in that of `Cc1ccc(C)c(S(=O)(=O)Nc2ccc(C(=O)Nc3cccc(C#N)c3)cc2)c1` [I-954, N-(3-cyanophenyl)-4-((2,5-dimethylphenyl)sulfonamido)benzamide], 25%. With `COc1ccccc1NS(=O)(=O)c1ccc(NC(=O)c2ccccc2SCC2CCCO2)cc1` (stereo not shown) [I-985, N-(4-(N-(2-methoxyphenyl)sulfamoyl)phenyl)-2-(((tetrahydrofuran-2-yl)methyl)thio)benzamide], the “% Inhibition of Apyrase” value was 57%.

As to `CN(c1ccccc1)S(=O)(=O)c1ccccc1C(=O)N1CCCc2ccccc21` [I-810, N-methyl-N-phenyl-2-(1,2,3,4-tetrahydroquinoline-1-carbonyl)benzenesulfonamide], the “% Inhibition of Apyrase” value is 75%. Regarding `COc1ccccc1N(C)S(=O)(=O)c1ccc(C(=O)N2CCCSc3ccccc32)cc1` [I-878, N-(2-methoxyphenyl)-N-methyl-4-(2,3,4,5-tetrahydrobenzo[b][1,4]thiazepine-5-carbonyl)benzenesulfonamide], the “% Inhibition of Apyrase” value was 54%.

As to `CCOc1ccc(NS(=O)(=O)c2c(C)cccc2NC(=O)c2ccccc2OC)cc1` [I-820, N-(2-(N-(4-ethoxyphenyl)sulfamoyl)-3-methylphenyl)-2-methoxybenzamide], the “% Inhibition of Apyrase” value was 57%. In the case of `CCOc1ccc(NS(=O)(=O)c2c(C)cccc2NC(=O)c2ccc(Cl)cc2)cc1` [I-821, 4-chloro-N-(2-(N-(4-ethoxyphenyl)sulfamoyl)-3-methylphenyl)benzamide], the “% Inhibition of Apyrase” value turned out to be 56%. Consider `O=C(Nc1ccc(C(F)(F)F)cc1)c1cccc(S(=O)(=O)Nc2ccc3c(c2)OCO3)c1` [I-192, 3-(N-(benzo[d][1,3]dioxol-5-yl)sulfamoyl)-N-(4-(trifluoromethyl)phenyl)benzamide], for which the “% Inhibition of Apyrase” value is 72%.

For the compound `O=C(Nc1cccc(S(=O)(=O)Nc2cccc(C(F)(F)F)c2)c1)c1cccnc1` [I-758, N-(3-(N-(3-(trifluoromethyl)phenyl)sulfamoyl)phenyl) nicotinamide], the “% Inhibition of Apyrase” value is given as 28%.

As to `CN(c1ccccc1)S(=O)(=O)c1ccccc1C(=O)Nc1ccc(Cl)cc1F` [I-808, N-(4-chloro-2-fluorophenyl)-2-(N-methyl-N-phenylsulfamoyl)benzamide], the “% Inhibition of Apyrase” value stood at 80%. In the case of `O=C(Nc1ccccn1)c1cccc(S(=O)(=O)Nc2cccc(Cl)c2)c1` [I-615, 3-(N-(3-chlorophenyl)sulfamoyl)-N-(pyridin-2-yl)benzamide] it was 1%.

As to `Cc1ccc(NC(=O)c2ccc(NS(=O)(=O)c3ccc(Br)cc3)cc2)cc1S(=O)(=O)N(C)C` [I-945, 4-((4-bromophenyl)sulfonamido)-N-(3-(N,N-dimethylsulfamoyl)-4-methylphenyl)benzamide], the “% Inhibition of Apyrase” value was determined as 44%. On to `Cc1ccc(NC(=O)c2cccc(NS(=O)(=O)c3cccs3)c2)c(C)c1` [I-662, N-(2,4-dimethylphenyl)-3-(thiophene-2-sulfonamido)benzamide], for which the “% Inhibition of Apyrase” value is on record as 26%.

Regarding `N#Cc1ccc(C(=O)Nc2cccc(S(=O)(=O)Nc3ccc(Br)cc3)c2)cc1` [I-332, N-(3-(N-(4-bromophenyl)sulfamoyl)phenyl)-4-cyanobenzamide], the “% Inhibition of Apyrase” value is given as 60%. For the compound `COc1ccc(NC(=O)c2cccc(S(=O)(=O)N3CC(C)CC(C)C3)c2)c(S(=O)(=O)Nc2ccccc2Cl)c1` (stereo not shown) [I-822, N-(2-(N-(2-chlorophenyl)sulfamoyl)-4-methoxyphenyl)-3-((3,5-dimethylpiperidin-1-yl)sulfonyl)benzamide], the “% Inhibition of Apyrase” value came out at 54%. Consider `O=C(Nc1nc2c(s1)CCC2)c1cccc(NS(=O)(=O)c2ccc3c(c2)OCCO3)c1` [I-637, N-(5,6-dihydro-4H-cyclopenta[d]thiazol-2-yl)-3-((2,3-dihydrobenzo[b][1,4]dioxine)-6-sulfonamido)benzamide], for which the “% Inhibition of Apyrase” value is 57%. Regarding `O=C(NCC1(c2ccc(Br)cc2)CCOCC1)c1cccc(S(=O)(=O)Nc2ccc(Br)cc2)c1` [I-260, 3-(N-(4-bromophenyl)sulfamoyl)-N-((4-(4-bromophenyl)tetrahydro-2H-pyran-4-yl)methyl)benzamide], the “% Inhibition of Apyrase” value worked out at 60%. In the case of `COc1ccc(NC(=O)c2ccc(S(=O)(=O)Nc3ccc(F)cc3)cc2)cc1` [I-408, 4-(N-(4-fluorophenyl)sulfamoyl)-N-(4-methoxyphenyl)benzamide], the “% Inhibition of Apyrase” value was 30%. Take `O=C(Nc1ccc(S(=O)(=O)Nc2cccc(C(F)(F)F)c2)cc1)c1ccc(Cl)c([N+](=O)[O-])c1` [I-979, 4-chloro-3-nitro-N-(4-(N-(3-(trifluoromethyl)phenyl)sulfamoyl)phenyl) benzamide]: the “% Inhibition of Apyrase” value is on record as 58%. For the compound `O=C(Nc1ccccc1N1CCCC1=O)c1cccc(S(=O)(=O)N2CCc3ccccc32)c1` [I-600, 3-(indolin-1-ylsulfonyl)-N-(2-(2-oxopyrrolidin-1-yl)phenyl)benzamide], the “% Inhibition of Apyrase” value is 29%. Turning to `COc1ccccc1NS(=O)(=O)c1ccc(NC(=O)c2ccc3c(c2)OCCO3)cc1` [I-981, N-(4-(N-(2-methoxyphenyl)sulfamoyl)phenyl)-2,3-dihydrobenzo[b][1,4]dioxine-6-carboxamide], the “% Inhibition of Apyrase” value turned out to be 57%. The figure for `O=C(Nc1cccc([N+](=O)[O-])c1)c1cccc(S(=O)(=O)Nc2ccc(F)cc2)c1` [I-31, 3-(N-(4-fluorophenyl)sulfamoyl)-N-(3-nitrophenyl)benzamide] is 21%; for `O=C(Nc1ccc2c(c1)OCCCO2)c1cccc(S(=O)(=O)Nc2ccc3c(c2)OCCO3)c1` [I-573, N-(3,4-dihydro-2H-benzo[b][1,4]dioxepin-7-yl)-3-(N-(2,3-dihydrobenzo[b][1,4]dioxin-6-yl)sulfamoyl)benzamide] it is 50%; for `O=C(Nc1ccccc1N1CCCC1)c1cccc(S(=O)(=O)N2CCc3ccccc32)c1` [I-492, 3-(indolin-1-ylsulfonyl)-N-(2-(pyrrolidin-1-yl)phenyl)benzamide] it is 58%. `CCCCc1nnc(NC(=O)c2cccc(NS(=O)(=O)c3ccc(C)c(F)c3)c2)s1` [I-647, N-(5-butyl-1,3,4-thiadiazol-2-yl)-3-((3-fluoro-4-methylphenyl)sulfonamido)benzamide]: the “% Inhibition of Apyrase” value was 53%.
